ChEMBL document CHEMBL1201862, “PubChem BioAssay data set” (2004)
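Five compound concentrations were applied to cells in 96-well plates for 48 hours; endpoints were derived by simple linear interpolation of the resulting dose-response curve. GI50 = concentration required for 50% inhibition of growth.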 The source made the active and inactive calls. Rule as the data show it: active = GI50 up to about 1.1 µM and inactive = higher. *1 amine or outer side, *2 acyl side, *3 side chain or, on linkers, in order; H or OH if unused. Where a SMILES comes first, the peptide text is derived from it. Non-standard residues stand in square brackets, D forms with d. Residues, ends and D or L forms follow the SMILES beside them. [ ]: non-standard residue; d: D form. The star is where a group is joined. ξ: configuration not given here. *: point of attachment. X30 = COC1=CC(=O)N(C(=O)[C@@H](O*)C(C)C)[C@H]1Cc1ccccc1; X43 = CCC(=O)CC(O)CC(C)CC(N[*:1])C(=O)[*:2]; ξLeu(3ξ-OH) = CC(C)C(O)C(N)C(=O)O; ξPro(4ξ-Me) = CC1CNC(C(=O)O)C1; NMeL = CN[C@@H](CC(C)C)C(=O)O; X42 = CCC(C)/C=C/C(=O)*; Cbz = O=C(OCc1ccccc1)*; Aib = CC(C)(N)C(=O)O; X44 = CC(CN(C)C)N*; βAla = NCCC(=O)O

What was measured:
Assay in all cases: NCI anticancer screen, dose series, 48 h
UACC-257 = system: UACC-257
HCT-116 = system: HCT-116
IGROV-1 = system: IGROV-1
SK-MEL-28 = system: SK-MEL-28
EKVX = system: EKVX
KM12 = system: KM12
SF-539 = system: SF-539
Hs-578T = system: Hs-578T
MCF7 = system: MCF7
SF-295 = system: SF-295
SW-620 = system: SW-620
HOP-92 = system: HOP-92
K562 = system: K562
MDA-MB-435 = system: MDA-MB-435
CCRF-CEM = system: CCRF-CEM
HCC 2998 = system: HCC 2998
NCI-H460 = system: NCI-H460
SK-OV-3 = system: SK-OV-3
OVCAR-8 = system: OVCAR-8
Malme-3M = system: Malme-3M

Row | SMILES | GI50 (UACC-257) | GI50 (HCT-116) | GI50 (IGROV-1) | GI50 (SK-MEL-28) | GI50 (EKVX) | GI50 (KM12) | GI50 (SF-539) | GI50 (Hs-578T) | GI50 (MCF7) | GI50 (SF-295) | GI50 (SW-620) | GI50 (HOP-92) | GI50 (K562) | GI50 (MDA-MB-435) | GI50 (CCRF-CEM) | GI50 (HCC 2998) | GI50 (NCI-H460) | GI50 (SK-OV-3) | GI50 (OVCAR-8) | GI50 (Malme-3M)
1 | COC1=CC(=O)N(C(=O)[C@@H](OC(=O)[C@@H]2CCCN2C(=O)[C@@H]2CCCN2C(=O)[C@H](CC(C)C)N(C)C(=O)[C@@H](NC(=O)[C@@H](NC(=O)OCc2ccccc2)C(C)C)C(C)C)C(C)C)[C@H]1Cc1ccccc1 (Cbz-VV[NMeL]PP-X30) | 76 µM (inactive) | 44.6 µM (inactive) | 79.1 µM (inactive) | > 100 µM (inactive) | > 100 µM (inactive) | > 100 µM (inactive) | 15 µM (inactive) | > 100 µM (inactive) | 56 µM (inactive) | 20.3 µM (inactive) | > 100 µM (inactive) | 20.5 µM (inactive) | > 100 µM (inactive) | > 100 µM (inactive) | 35.3 µM (inactive) | > 100 µM (inactive) | 52.7 µM (inactive) | 31.3 µM (inactive) | > 100 µM (inactive) | > 100 µM (inactive)
2 | CC(NC1=NCCO1)c1ccco1 (stereo not drawn) | > 100 µM (inactive) | > 100 µM (inactive) | > 100 µM (inactive) | > 100 µM (inactive) | > 100 µM (inactive) | 20.3 µM (inactive) | > 100 µM (inactive) | > 100 µM (inactive) | > 100 µM (inactive) | > 100 µM (inactive) | > 100 µM (inactive) | > 100 µM (inactive) | > 100 µM (inactive) | > 100 µM (inactive) | > 100 µM (inactive) | > 100 µM (inactive) | > 100 µM (inactive) | > 100 µM (inactive) | > 100 µM (inactive) | > 100 µM (inactive)
3 | O=C1N(C2CCCCC2)C(=O)N1C1CCCCC1 | 0.679 µM (active) | 0.113 µM (active) | 17.5 µM (inactive) | 1.19 µM (inactive) | 8.61 µM (inactive) | 0.285 µM (active) | 1.22 µM (inactive) | 0.0409 µM (active) | 0.723 µM (active) | 0.29 µM (active) | 1.95 µM (inactive) | 0.149 µM (active) | 0.0875 µM (active) | 2.08 µM (inactive) | 0.04 µM (active) | 1.16 µM (inactive) | 0.321 µM (active) | 5.15 µM (inactive) | 0.0929 µM (active) | 1.99 µM (inactive)
4 | CCC(=O)CC(O)CC(C)CC(NC(=O)C1CC(C)CN1C(=O)/C=C/C(C)CC)C(=O)NC(C(=O)NC(C)(C)C(=O)NC(CC(C)C)C(=O)NC(CC(C)C)C(=O)NC(C)(C)C(=O)NC(C)(C)C(=O)NCCC(=O)NC(C)CN(C)C)C(O)C(C)C (stereo not drawn) (X42-[ξPro(4ξ-Me)][X43][ξLeu(3ξ-OH)][Aib]LL[Aib][Aib][βAla]-X44; configuration not given here) | < 0.005 µM (active) | 0.0235 µM (active) | 0.0746 µM (active) | 0.362 µM (active) | < 0.005 µM (active) | 0.0412 µM (active) | 0.292 µM (active) | 0.0132 µM (active) | < 0.005 µM (active) | 0.0255 µM (active) | 0.143 µM (active) | 0.0887 µM (active) | 0.0469 µM (active) | 0.0745 µM (active) | < 0.005 µM (active) | 0.153 µM (active) | 0.0374 µM (active) | 0.341 µM (active) | < 0.005 µM (active) | 0.133 µM (active)
5 | C[C@H](NC(=O)C(Cc1ccccc1)(Cc1ccc(O)cn1)NC(=O)c1ccccc1)c1ccccc1 (stereo partly drawn) | 17.7 µM (inactive) | 15.3 µM (inactive) | 16.3 µM (inactive) | 18.5 µM (inactive) | 14.7 µM (inactive) | 19.8 µM (inactive) | 19.2 µM (inactive) | 16.7 µM (inactive) | 24.2 µM (inactive) | 14.6 µM (inactive) | 22.5 µM (inactive) | 21.3 µM (inactive) | 34 µM (inactive) | 16.5 µM (inactive) | 30.5 µM (inactive) | 16.5 µM (inactive) | – | – | 20.4 µM (inactive) | 17.5 µM (inactive)
6 | C=C1c2nc3ccccc3n2C=C(c2ccc(OC)cc2)N1c1ccc(OCCN2CCOCC2)cc1 | 7.13 µM (inactive) | 21.9 µM (inactive) | > 100 µM (inactive) | 42.2 µM (inactive) | > 100 µM (inactive) | 15.8 µM (inactive) | > 100 µM (inactive) | 4.7 µM (inactive) | 12.3 µM (inactive) | 41.7 µM (inactive) | 44.3 µM (inactive) | > 40.9 µM (inactive) | 7.62 µM (inactive) | 24.3 µM (inactive) | 3.73 µM (inactive) | 86.3 µM (inactive) | 3.72 µM (inactive) | > 100 µM (inactive) | 6.03 µM (inactive) | 6.52 µM (inactive)
